Test results as given in paper PMC9293909 (Nature Communications, 2022).
Several values for one entry are separate records, joined by “and”; a condition that tells them apart may be missing. Identical values can stand only once. Like-named read-outs stand apart in the source and are kept apart here.

How the values were obtained:
[1] = test system: motor coordination
Method: On the day of the experiment, three baseline trials were recorded. The compound was administered IP (10 µg kg^−1, n = 6) or IV via tail vein injection (10 and 25 µg kg^−1, n = 6 per group). The control group received subcutaneous saline and the positive control group received subcutaneous morphine (15 mg kg^−1). Latency to fall (seconds) was measured in triplicate at 1, 2, 3 and 5 h post drug administration.

[2] = test system: respiration (f, VT, VE); test: Urethane-anaesthetised rat, respiration; settings: Fig6e
Method: The femoral vein was catheterised for drug delivery.
Adult male Sprague–Dawley rats (400-500 g) were anaesthetised with urethane and instrumented as described above, with the exception that the arterial cannulation was not performed.
Changes in f, VT, and VE were measured. If the dosing occurred close to a respiratory event such as a sigh a second IV dose was administered, with 20 min recovery periods either side of the injection.

[3] = test system: heart rate and mean arterial blood pressure; test: Urethane-anaesthetised rat, heart rate and arterial blood pressure; settings: for HR / HR, Average / MAP, Average: Fig6e
Source text: Anaesthesia was induced in adult male Sprague–Dawley rats (230-330 g) with isofluorane (2–4%; Piramal Healthcare). The femoral vein was catheterised for drug delivery. Anaesthesia was maintained with urethane (1.2–1.7 g kg^−1; Sigma) in sterile saline delivered via the femoral vein catheter. […] The trachea was cannulated and the femoral artery catheterised, and both were connected to pressure transducers (Digitimer) to record respiratory airflow and arterial blood pressure, respectively. Blood pressure and airflow signals were amplified using the NeuroLog system (Digitimer) connected to a micro1401 interface and acquired on a computer using Spike2 software (v7.08a; Cambridge Electronic Design). […] Airflow measurements were used to calculate: tidal volume (VT; mL; pressure sensors were calibrated with a 3 mL syringe), and respiratory frequency (f; breaths min^−1; BrPM). Minute ventilation (VE; mL min^−1) was calculated as f × VT.
Cardiovascular and respiratory parameters were allowed to stabilise before experiments began. A1R agonists were administered by intravenous (IV) injection and the changes in HR, MAP, f, VT, and VE were measured. […] All injections were administered IV as a 350 µl·kg^-1 bolus.

[4] = test system: neuropathic pain (paw withdrawal threshold); test: Spinal nerve ligation (Chung model), mechanical allodynia, von Frey; type: in vivo, rat
Method: Adult male Sprague–Dawley rats, 7-8 weeks old, weighing around 250 g at the time of Chung model surgery, were purchased from Charles River UK Ltd. The animals were housed in groups of 4 in an air-conditioned room on a 12-hour light/dark cycle. Food and water were available ad libitum. They were allowed to acclimatise to the experimental environment for three days by leaving them on a raised metal mesh for at least 40 min. The baseline paw withdrawal threshold (PWT) was examined using a series of graduated von Frey hairs (see below) for 3 consecutive days before surgery and re-assessed on the 6th to 8th day after surgery and on the 13th to 17th day after surgery before drug dosing.
Prior to surgery each rat was anaesthetised with 3% isoflurane mixed with oxygen (2 L min^−1) followed by an intramuscular injection of ketamine (60 mg kg^−1) plus xylazine (10 mg kg^−1). The back was shaved and sterilised with povidone-iodine. The animal was placed in a prone position and a para-medial incision was made on the skin covering the L4-6 level. The L5 spinal nerve was carefully isolated and tightly ligated with 6/0 silk suture. The wound was then closed in layers after a complete haemostasis. A single-dose of antibiotics (Amoxipen, 15 mg/rat, intraperitoneally, IP) was routinely given for prevention of infection after surgery. The animals were placed in a temperature-controlled recovery chamber until fully awake before being returned to their home cages. The vehicle (normal saline or DMSO) was administered via the IV route at 1 ml·kg^−1 and via the intrathecal (IT) route at 10 µl for each injection. […] To test for mechanical allodynia the animals were placed in individual Perspex boxes on a raised metal mesh for at least 40 min before the test. Starting from the filament of lower force, each filament was applied perpendicularly to the centre of the ventral surface of the paw until slightly bent for 6 seconds. If the animal withdrew or lifted the paw upon stimulation, then a hair with force immediately lower than that tested was used. If no response was observed, then a hair with force immediately higher was tested. […] The animals were returned to their home cages to rest (about 30 min) between two neighbouring testing time points. At the end of each experiment, the animals were deeply anaesthetised with isoflurane and killed by decapitation.

[5] = Half-life determination in PBS; type: physicochemical; settings: for 1st / % Compound Remaining / 2nd / % Compound Remaining / Mean / % Compound Remaining: PBS, pH 7.4; for half-life: buffer, pH 7.4, PBS
Method: […] Samples were analysed by HPLC-MS/MS and corresponding peak areas were recorded for each analyte. The ratio of precursor compound remaining after each time-point relative to the amount present at time 0, expressed as a percentage, is reported as chemical stability.

[6] = antagonist group, 1h after dosing
[7] = antagonist group, 2h after dosing
[8] = antagonist group, 4h after dosing
[9] = incubation 0 minutes, UoBern01 at 1.00E-06 M
[10] = incubation 60 minutes, UoBern01 at 1.00E-06 M
[11] = incubation 120 minutes, UoBern01 at 1.00E-06 M

In the case of `CN1CC[C@]23c4c5ccc(O)c4O[C@H]2[C@@H](O)C=C[C@H]3[C@H]1C5` [morphine], the “Seconds on rota, 1h avg” value ([1]; Morphine, 1h post inj, avg of 3 trials per animal) is reported as 12.0 s and 6.0 s and 5.0 s and 6.3 s and 10.7 s and 10.3 s, the 1h avg/ baseline ([1]; Morphine, 1h post inj, per animal) is reported as 0.218 and 0.137 and 0.1 and 0.2 and 0.164 and 0.0833 and the “Seconds on rota, 1h” value ([1]; Morphine, 1h post inj, single trials, individual animals) is reported as 5 s and 14 s and 17 s and 9 s and 4 s and 2 s and 10 s and 8 s and 1 s and 12 s. The “average of avg/baseline, 1hr post inj” value ([1]; Morphine, 1hr, group average) was 0.150, the “Seconds on rota, 2h avg” value ([1]; Morphine, 2h post inj, avg of 3 trials per animal) was 34.0 s and 19.7 s and 12.3 s and 6.7 s and 21.7 s and 31.0 s and the 2h avg/ baseline ([1]; Morphine, 2h post inj, per animal) was 0.6 and 0.45 and 0.259 and 0.2 and 0.333 and 0.25. For the same molecule, the “Seconds on rota, 2h” value ([1]; Morphine, 2h post inj, single trials, individual animals) was 30 Seconds and 27 Seconds and 45 Seconds and 7 Seconds and 18 Seconds and 34 Seconds and 2 Seconds and 17 Seconds and 8 Seconds and 6 Seconds (2×) and 24 Seconds and 22 Seconds and 19 Seconds and 26 Seconds, the “average of avg/baseline, 2hr post inj” value ([1]; Morphine, 2hr, group average) was 0.352 and the “Seconds on rota, 3h avg” value ([1]; Morphine, 3h post inj, avg of 3 trials per animal) was 46.3 s and 37.7 s and 34.0 s and 18.7 s and 55.0 s. For the same molecule, the 3h avg/ baseline ([1]; Morphine, 3h post inj, per animal) was 0.842 and 0.9 and 0.7 and 0.566 and 0.444, the “Seconds on rota, 3h” value ([1]; Morphine, 3h post inj, single trials, individual animals) was 39 s and 41 s and 59 s and 27 s and 29 s and 57 s and 21 s and 54 s and 11 s and 23 s and 22 s and 26 s and 65 s and the “average of avg/baseline, 3hr post inj” value ([1]; Morphine, 3hr, group average) was 0.690. For the same molecule, the “Seconds on rota, 5h avg” value ([1]; Morphine, 5h post inj, avg of 3 trials per animal) was 48.7 s and 52.3 s and 48.0 s and 81.7 s and 84.3 s, the 5h avg/ baseline ([1]; Morphine, 5h post inj, per animal) was 0.9 and 1.1 and 1.5 and 1.3 and 0.7 and the “Seconds on rota, 5h” value ([1]; Morphine, 5h post inj, single trials, individual animals) was 24 s and 57 s and 65 s and 31 s and 60 s and 55 s and 19 s and 73 s and 38 s and 51 s and 67 s and 81 s and 97 s and 88 s and 100 s. For the same molecule, the “average of avg/baseline, 5hr post inj” value ([1]; Morphine, 5hr, group average) was 1.081 and the rotarod performance ([1]; morphine 15 mg kg^−1 SC) was “caused sedation and motor impairment”.
In the case of `OC[C@H]1O[C@@H](n2cnc3c(N[C@@H]4CCC[C@H]4OCc4ccccc4)ncnc32)[C@H](O)[C@@H]1O` [B], the “Freq, Average” value ([2]; dose group B 8, n 12) is reported as 166.9, the “Freq, Average” value ([2]; dose group B 17, n 4) is reported as 189.3 and the “Freq, Average” value ([2]; dose group B 25, n 4) is reported as 209.0. For the same molecule, the HR ([3]; dose group B 8, individual rat) was 406 and 368 and 425 and 416 and 331 and 340 and 420 and 470, the “HR, Average” value ([3]; dose group B 8, n 8) was 397.0 and the “MAP, Average” value ([3]; dose group B 8, n 8) was 111.3. The HR ([3]; dose group B 17, individual rat) was 369 and 385 and 301 and 313, the “HR, Average” value ([3]; dose group B 17, n 4) was 342.0 and the “MAP, Average” value ([3]; dose group B 17, n 4) was 115.8. The HR ([3]; dose group B 25, individual rat) was 362 and 382 and 312 and 305, the “HR, Average” value ([3]; dose group B 25, n 4) was 340.3 and the “MAP, Average” value ([3]; dose group B 25, n 4) was 113.5.
For `Nc1ncnc2c1ncn2[C@@H]1O[C@H](CO)[C@@H](O)[C@H]1O` [ado], the heart rate ([3]; Fig5c, individual rat) was 179 and 147 and 138 and 122, the “heart rate, Average” value ([3]; Fig5c, n 4) was 147 and the “mean arterial blood pressure” value ([3]; Fig5d, individual rat) was 56 and 36 and 42 and 48. For the same molecule, the “mean arterial blood pressure, Average” value ([3]; Fig5d, n 4) was 46.
With `CCCOC(=O)c1c(-c2ccccc2)nc(CC)c(C(=O)SCC)c1CCC` [MRS1523] the “effect on analgesia caused by BnOCPA” value ([4]; MRS1523 2 mg kg^−1 IP, BnOCPA 6 µg kg^−1 IV) was “had no effect on the analgesia caused by BnOCPA”, the “paw withdrawal threshold, Average (Fig7d)” value [4, 6] was 13.6 and the “paw withdrawal threshold, individual animals (Fig7d)” value [4, 6] was 15 and 8. For the same molecule, the “paw withdrawal threshold, Average (Fig7d)” value [4, 7] was 14.0, the “paw withdrawal threshold, individual animals (Fig7d)” value [4, 7] was 15 and 10 and the “paw withdrawal threshold, Average (Fig7d)” value [4, 8] was 12.2. The “paw withdrawal threshold, individual animals (Fig7d)” value [4, 8] was 15 and 10 and 6.
For `CCCn1c(=O)c2[nH]c(C3CCCC3)nc2n(CCC)c1=O` [DPCPX], the “effect on reversal of mechanical allodynia by BnOCPA” value ([4]; DPCPX 1 mg kg^−1 IP, BnOCPA 6 µg kg^−1 IV) was “prevented the reversal of mechanical allodynia by BnOCPA”, the “paw withdrawal threshold, Average (Fig7d)” value [4, 6] was 4.0 and the “paw withdrawal threshold, individual animals (Fig7d)” value [4, 6] was 6 and 4 and 2. For the same molecule, the “paw withdrawal threshold, Average (Fig7d)” value [4, 7] was 4.0, the “paw withdrawal threshold, individual animals (Fig7d)” value [4, 7] was 6 and 4 and 2 and the “paw withdrawal threshold, Average (Fig7d)” value [4, 8] was 4.7. For the same molecule, the “paw withdrawal threshold, individual animals (Fig7d)” value [4, 8] was 6 and 4 and 2.
For `OC[C@H]1O[C@@H](n2cnc3c(NC4CCCC4OCc4ccccc4)ncnc32)[C@H](O)[C@@H]1O` (some centres unmarked) [BnOCPAA], the “paw withdrawal threshold, individual animals (Fig7d)” value ([4]; 6ug, 1h after dosing) was 8, the “paw withdrawal threshold, Average (Fig7d)” value ([4]; 6ug, 1h after dosing, n 11) was 9.8 and the “paw withdrawal threshold, individual animals (Fig7d)” value ([4]; 6ug, 2h after dosing) was 8. For the same molecule, the “paw withdrawal threshold, Average (Fig7d)” value ([4]; 6ug, 2h after dosing, n 11) was 12.6, the “paw withdrawal threshold, individual animals (Fig7d)” value ([4]; 6ug, 4h after dosing) was 8 and the “paw withdrawal threshold, Average (Fig7d)” value ([4]; 6ug, 4h after dosing, n 11) was 9.8.
With `O=C(O)CCCc1ccc(N(CCCl)CCCl)cc1` [Chlorambucil] the “1st / % Compound Remaining” value [5, 9] was 100%, the “2nd / % Compound Remaining” value [5, 9] was 100% and the “Mean / % Compound Remaining” value [5, 9] was 100%. The “1st / % Compound Remaining” value ([5]; incubation 30 minutes) was 68.5%, the “2nd / % Compound Remaining” value ([5]; incubation 30 minutes) was 81.3% and the “Mean / % Compound Remaining” value ([5]; incubation 30 minutes) was 74.9%. For the same molecule, the “1st / % Compound Remaining” value [5, 10] was 45.8%, the “2nd / % Compound Remaining” value [5, 10] was 52.3% and the “Mean / % Compound Remaining” value [5, 10] was 49.1%. The “1st / % Compound Remaining” value ([5]; incubation 90 minutes) was 27.3%, the “2nd / % Compound Remaining” value ([5]; incubation 90 minutes) was 31% and the “Mean / % Compound Remaining” value ([5]; incubation 90 minutes) was 29.2%. For the same molecule, the “1st / % Compound Remaining” value [5, 11] was 11%, the “2nd / % Compound Remaining” value [5, 11] was “{17.7} %” and the “Mean / % Compound Remaining” value [5, 11] was 11%. The half-life ([5]; UoBern01 at 1.00E-06 M, read-out: 1st / Half-Life) was 39 min, the half-life ([5]; UoBern01 at 1.00E-06 M, read-out: 2nd / Half-Life) was 52.6 min and the half-life ([5]; UoBern01 at 1.00E-06 M, read-out: Mean / Half-Life) was 46 min.
